ChEMBL document CHEMBL1149799, “Bioactive peroxides as potential therapeutic agents” (Eur J Med Chem, 2008)
In brackets after ≈: the same amount, converted by molar mass.

Tests used:
[1] = Cytotoxicity against human Anip-973 cells; assay type: functional, cell-based
[2] = Cytotoxicity against human Bel-7721 cells; assay type: functional, cell-based
A549 = experiment: Cytotoxicity against human A549 cells; assay type: functional, cell-based; settings: Homo sapiens, A549
SF-295 = experiment: Cytotoxicity against human SF295 cells; assay type: functional, cell-based
DU-145 = experiment: Cytotoxicity against human DU145 cells; assay type: functional, cell-based; settings: Homo sapiens, DU-145
NCI-H226 = experiment: Cytotoxicity against human NCI-H226 cells; assay type: functional, cell-based
MDA-MB-231 = experiment: Cytotoxicity against human MDA-MB-231 cells; assay type: functional, cell-based
SK-OV-3 = experiment: Cytotoxicity against human SK-OV-3 cells; assay type: functional, cell-based
DMS-273 = experiment: Cytotoxicity against human DMS273 cells; assay type: functional, cell-based
NCI-H522 = experiment: Cytotoxicity against human NCI-H522 cells; assay type: functional, cell-based
SNB-75 = experiment: Cytotoxicity against human SNB75 cells; assay type: functional, cell-based
MCF7 = experiment: Cytotoxicity against human MCF7 cells; assay type: functional, cell-based; settings: Homo sapiens, MCF7
MKN-7 = experiment: Cytotoxicity against human MKN7 cells; assay type: functional, cell-based
NCI-H460 = experiment: Cytotoxicity against human NCI-H460 cells; assay type: functional, cell-based; settings: Homo sapiens, NCI-H460
OVCAR-5 = experiment: Cytotoxicity against human OVCAR5 cells; assay type: functional, cell-based
[3] = Cytotoxicity against human BSY1 cells; assay type: functional, cell-based; settings: BSY-1
SNB-78 = experiment: Cytotoxicity against human SNB78 cells; assay type: functional, cell-based
MKN-28 = experiment: Cytotoxicity against human MKN28 cells; assay type: functional, cell-based
SF-539 = experiment: Cytotoxicity against human SF539 cells; assay type: functional, cell-based
U-251 = experiment: Cytotoxicity against human U251 cells; assay type: functional, cell-based
DMS-114 = experiment: Cytotoxicity against human DMS114 cells; assay type: functional, cell-based
KM12 = experiment: Cytotoxicity against human KM12 cells; assay type: functional, cell-based
HCC 2998 = experiment: Cytotoxicity against human HCC2998 cells; assay type: functional, cell-based
PC-3 = experiment: Cytotoxicity against human PC3 cells; assay type: functional, cell-based; settings: Homo sapiens, PC-3
NCI-H23 = experiment: Cytotoxicity against human NCI-H23 cells; assay type: functional, cell-based
LOX IMVI = experiment: Cytotoxicity against human LOXI MVI cells; assay type: functional, cell-based
SF-268 = experiment: Cytotoxicity against human SF268 cells; assay type: functional, cell-based; settings: Homo sapiens, SF-268; read-out: IC50
[4] = Cytotoxicity against human HBC4 cells; assay type: functional, cell-based
[5] = Cytotoxicity against human HBC5 cells; assay type: functional, cell-based
St-4 = experiment: Cytotoxicity against human ST4 cells; assay type: functional, cell-based
MKN-45 = experiment: Cytotoxicity against human MKN45 cells; assay type: functional, cell-based
HCT-15 = experiment: Cytotoxicity against human HCT15 cells; assay type: functional, cell-based
[6] = Cytotoxicity against human RXF63IL cells; assay type: functional, cell-based
[7] = Cytotoxicity against human MKN1 cells; assay type: functional, cell-based; settings: MKN-1
ACHN = experiment: Cytotoxicity against human ACHN cells; assay type: functional, cell-based
OVCAR-8 = experiment: Cytotoxicity against human OVCAR8 cells; assay type: functional, cell-based
OVCAR-3 = experiment: Cytotoxicity against human OVCAR-3 cells; assay type: functional, cell-based
HCT-116 = experiment: Cytotoxicity against human HCT116 cells; assay type: functional, cell-based
MKN-74 = experiment: Cytotoxicity against human MKN74 cells; assay type: functional, cell-based
HT-29 = experiment: Cytotoxicity against human HT29 cells; assay type: functional, cell-based; settings: Homo sapiens, HT-29
OVCAR-4 = experiment: Cytotoxicity against human OVCAR4 cells; assay type: functional, cell-based
[8] = Cytotoxicity against human PLC/PRF/5 cells; assay type: functional; settings: read-out: ED50 (the source's name)
KB = experiment: Cytotoxicity against human KB cells; assay type: functional, cell-based; settings: Homo sapiens, KB; read-out: ED50 (the source's name)
[9] = target: Sodium-dependent noradrenaline transporter (Homo sapiens, UniProt P23975); experiment: Inhibition of noradrenaline transporter
Sequence of Sodium-dependent noradrenaline transporter (P23975 whole entry): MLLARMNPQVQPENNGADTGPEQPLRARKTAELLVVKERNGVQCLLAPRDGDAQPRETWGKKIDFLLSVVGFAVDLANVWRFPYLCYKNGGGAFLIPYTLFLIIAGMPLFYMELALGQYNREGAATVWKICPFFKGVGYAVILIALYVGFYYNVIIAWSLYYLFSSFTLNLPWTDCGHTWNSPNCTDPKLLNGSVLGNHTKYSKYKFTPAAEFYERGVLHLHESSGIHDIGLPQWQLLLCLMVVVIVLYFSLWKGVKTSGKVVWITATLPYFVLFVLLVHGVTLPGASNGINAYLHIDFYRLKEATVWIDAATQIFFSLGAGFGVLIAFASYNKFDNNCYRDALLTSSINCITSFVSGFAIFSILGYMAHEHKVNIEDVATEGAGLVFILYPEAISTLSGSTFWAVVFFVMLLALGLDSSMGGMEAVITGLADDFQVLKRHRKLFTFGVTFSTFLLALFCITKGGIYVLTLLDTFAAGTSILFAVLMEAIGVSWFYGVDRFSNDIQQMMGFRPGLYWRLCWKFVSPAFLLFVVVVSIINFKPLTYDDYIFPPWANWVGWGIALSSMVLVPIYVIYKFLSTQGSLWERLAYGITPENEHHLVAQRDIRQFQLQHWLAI

[10] = Inhibition of gamma aminobutyric acid transporter
[11] = Inhibition of L-glutamate transporter
[12] = target: Sodium-dependent dopamine transporter (Homo sapiens, UniProt Q01959); experiment: Inhibition of dopamine uptake at DAT
Sequence of Sodium-dependent dopamine transporter (Q01959 whole entry): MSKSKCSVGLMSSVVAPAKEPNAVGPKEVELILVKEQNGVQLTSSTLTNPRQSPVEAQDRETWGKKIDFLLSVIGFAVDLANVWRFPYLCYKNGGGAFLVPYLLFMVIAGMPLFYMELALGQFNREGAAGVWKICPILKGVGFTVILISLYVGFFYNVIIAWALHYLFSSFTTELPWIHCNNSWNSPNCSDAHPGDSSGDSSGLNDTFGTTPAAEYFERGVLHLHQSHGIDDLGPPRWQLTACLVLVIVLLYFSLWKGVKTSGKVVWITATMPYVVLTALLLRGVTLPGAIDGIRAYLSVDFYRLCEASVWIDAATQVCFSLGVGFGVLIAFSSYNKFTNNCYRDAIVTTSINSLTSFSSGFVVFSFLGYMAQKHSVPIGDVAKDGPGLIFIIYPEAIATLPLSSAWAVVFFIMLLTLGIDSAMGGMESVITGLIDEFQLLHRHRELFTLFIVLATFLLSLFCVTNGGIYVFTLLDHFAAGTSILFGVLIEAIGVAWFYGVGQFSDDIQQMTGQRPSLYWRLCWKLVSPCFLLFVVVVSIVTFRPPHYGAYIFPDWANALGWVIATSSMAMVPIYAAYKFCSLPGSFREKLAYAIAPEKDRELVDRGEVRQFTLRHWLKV

[13] = target: Sodium-dependent serotonin transporter (Homo sapiens, UniProt P31645); experiment: Inhibition of serotonin transporter
Sequence of Sodium-dependent serotonin transporter (P31645 whole entry): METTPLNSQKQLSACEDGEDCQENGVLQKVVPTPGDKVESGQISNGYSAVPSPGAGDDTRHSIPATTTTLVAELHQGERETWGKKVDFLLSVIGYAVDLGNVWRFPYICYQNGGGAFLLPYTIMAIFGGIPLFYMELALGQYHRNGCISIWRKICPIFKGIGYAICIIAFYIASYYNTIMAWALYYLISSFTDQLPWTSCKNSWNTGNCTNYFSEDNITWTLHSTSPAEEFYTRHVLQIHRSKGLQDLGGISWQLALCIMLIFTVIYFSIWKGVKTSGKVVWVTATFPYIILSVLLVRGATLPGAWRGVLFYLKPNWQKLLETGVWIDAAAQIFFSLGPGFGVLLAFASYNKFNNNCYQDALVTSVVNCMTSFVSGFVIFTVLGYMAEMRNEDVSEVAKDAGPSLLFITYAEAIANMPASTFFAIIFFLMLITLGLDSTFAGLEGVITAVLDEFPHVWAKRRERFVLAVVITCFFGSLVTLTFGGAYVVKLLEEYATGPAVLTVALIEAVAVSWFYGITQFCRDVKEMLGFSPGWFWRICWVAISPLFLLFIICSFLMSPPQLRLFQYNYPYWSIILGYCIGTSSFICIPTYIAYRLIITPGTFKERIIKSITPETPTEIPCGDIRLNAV

COC1=CC(=O)c2c(O)c(OC)c3c(c2C1=O)-c1c2c(c(O)c(OC)c1[C@@H](C(C)=O)[C@@](C)(O)C3)C(=O)C=C(OC)C2=O [HYPOCRELLIN D]
IC50 [1]: 38.4 µg/mL (≈ 66.4 µM) | IC50 [2]: 1.8 µg/mL (≈ 3.11 µM) | IC50 (A549): 8.8 µg/mL (≈ 15.2 µM)

C=C(C)[C@@H](C)/C=C/[C@@H](C)[C@H]1CC[C@@H]2[C@]1(C)CC=C1[C@]23C=C[C@]2(C[C@@H](O)CC[C@]12C)OO3
IC50 (SF-295): 0.75 µg/mL (≈ 1.77 µM) | IC50 (DU-145): 0.54 µg/mL (≈ 1.27 µM) | IC50 (NCI-H226): 0.63 µg/mL (≈ 1.48 µM) | IC50 (MDA-MB-231): 1.26 µg/mL (≈ 2.97 µM) | IC50 (SK-OV-3): 0.81 µg/mL (≈ 1.91 µM) | IC50 (DMS-273): 0.54 µg/mL (≈ 1.27 µM) | IC50 (NCI-H522): 0.57 µg/mL (≈ 1.34 µM) | IC50 (SNB-75): 2.16 µg/mL (≈ 5.09 µM) | IC50 (MCF7): 0.36 µg/mL (≈ 0.848 µM) | IC50 (MKN-7): 0.48 µg/mL (≈ 1.13 µM) | IC50 (NCI-H460): 0.61 µg/mL (≈ 1.44 µM) | IC50 (OVCAR-5): 0.54 µg/mL (≈ 1.27 µM) | IC50 [3]: 0.6 µg/mL (≈ 1.41 µM) | IC50 (SNB-78): 1.17 µg/mL (≈ 2.76 µM) | IC50 (MKN-28): 0.84 µg/mL (≈ 1.98 µM) | IC50 (SF-539): 0.84 µg/mL (≈ 1.98 µM) | IC50 (U-251): 0.63 µg/mL (≈ 1.48 µM) | IC50 (DMS-114): 0.48 µg/mL (≈ 1.13 µM) | IC50 (KM12): 0.6 µg/mL (≈ 1.41 µM) | IC50 (HCC 2998): 0.57 µg/mL (≈ 1.34 µM) | IC50 (PC-3): 0.57 µg/mL (≈ 1.34 µM) | IC50 (NCI-H23): 0.54 µg/mL (≈ 1.27 µM) | IC50 (LOX IMVI): 0.6 µg/mL (≈ 1.41 µM) | IC50 (SF-268): 1.02 µg/mL (≈ 2.4 µM) | IC50 [4]: 0.85 µg/mL (≈ 2 µM) | IC50 [5]: 0.96 µg/mL (≈ 2.26 µM) | IC50 (St-4): 0.69 µg/mL (≈ 1.62 µM) | IC50 (A549): 0.96 µg/mL (≈ 2.26 µM) | IC50 (MKN-45): 0.54 µg/mL (≈ 1.27 µM) | IC50 (HCT-15): 0.75 µg/mL (≈ 1.77 µM) | IC50 [6]: 0.72 µg/mL (≈ 1.7 µM) | IC50 [7]: 0.42 µg/mL (≈ 0.989 µM) | IC50 (ACHN): 0.51 µg/mL (≈ 1.2 µM) | IC50 (OVCAR-8): 0.22 µg/mL (≈ 0.518 µM) | IC50 (OVCAR-3): 0.19 µg/mL (≈ 0.447 µM) | IC50 (HCT-116): 0.48 µg/mL (≈ 1.13 µM) | IC50 (MKN-74): 0.54 µg/mL (≈ 1.27 µM) | IC50 (HT-29): 0.57 µg/mL (≈ 1.34 µM) | IC50 (OVCAR-4): 0.6 µg/mL (≈ 1.41 µM)

CC(C)C(C)/C=C/C(C)[C@H]1CC[C@@H]2[C@]1(C)CC[C@H]1[C@]23C=C[C@]2(C[C@@H](O)CC[C@]12C)OO3 (some centres undefined)
EC50 [8]: 11 µg/mL (≈ 25.6 µM) | EC50 (KB): 9.97 µg/mL (≈ 23.3 µM)

CC(C)=CCC[C@]1(C)[C@@H](CC=C(C)C)C[C@@]2(CC=C(C)C)C(=O)[C@@](CC=C(C)C)(CC3=C[C@@H]4[C@@H](C(C)C)CC[C@@](C)(OO)[C@H]4CC3)C(=O)[C@]1(C(=O)C(C)C)C2=O [HYDROPEROXYCADIFORIN]
IC50 [9]: 64.7 nM | IC50 [10]: 0.05 µg/mL (≈ 0.0647 µM) | IC50 [11]: 0.5 µg/mL (≈ 0.647 µM) | IC50 [12]: 64.7 nM | IC50 [13]: 64.7 nM
